Assay in all cases: competitive isoTOP-ABPP
What all share (assay type): binding

The target in assay [1] is T1, XRCC6 X-ray repair cross-complementing protein 6 (Homo sapiens, UniProt P12956).
T1 construct: isoTOP-ABPP experiments performed in cell lysates (in vitro); endogenous in cells; host or cells: soluble proteome of human cancer cell lines (MDA-MB-231; Ramos and Jurkat also prepared)
Conditions: 50 uM, in vitro; for isoTOP-ABPP reactivity ratio at lysine P12956_K351: 231 sol. The method, boiled down: (§1)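 Lysine engagement is reported as R, the MS1 peak-area ratio of heavy-tagged DMSO to light-tagged compound samples. Final fragment concentrations were 50 μM for activated esters and 100 μM for guanidinylating agents; STP-alkyne probe 0.1 mM, 1 h.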

Assay [2] deals with T2, GLUD1 Glutamate dehydrogenase 1, mitochondrial (Homo sapiens, UniProt P00367).
T2 construct: isoTOP-ABPP experiments performed in cell lysates (in vitro); endogenous in cells; host or cells: MDA-MB-231 soluble lysate
Conditions: 50 uM, in vitro; for isoTOP-ABPP reactivity ratio at lysine P00367_K480: 231 sol. Summed up: as §1

The target in assay [3] is T3, POLR2L DNA-directed RNA polymerases I, II, and III subunit (Homo sapiens, UniProt P62875).
T3 construct: isoTOP-ABPP experiments performed in cell lysates (in vitro); endogenous in cells; host or cells: soluble proteome of human cancer cell lines (MDA-MB-231, Ramos, Jurkat)
The following applies: 50 uM, in vitro; for isoTOP-ABPP reactivity ratio at lysine P62875_K67: 231 sol. The method, boiled down: as §1

Assay [4] deals with T4, GLOD4 Glyoxalase domain-containing protein 4 (Homo sapiens, UniProt Q9HC38).
T4 construct: endogenous in cells; host or cells: MDA-MB-231 (soluble fraction of lysate)
T4 sequence (Q9HC38 1-313): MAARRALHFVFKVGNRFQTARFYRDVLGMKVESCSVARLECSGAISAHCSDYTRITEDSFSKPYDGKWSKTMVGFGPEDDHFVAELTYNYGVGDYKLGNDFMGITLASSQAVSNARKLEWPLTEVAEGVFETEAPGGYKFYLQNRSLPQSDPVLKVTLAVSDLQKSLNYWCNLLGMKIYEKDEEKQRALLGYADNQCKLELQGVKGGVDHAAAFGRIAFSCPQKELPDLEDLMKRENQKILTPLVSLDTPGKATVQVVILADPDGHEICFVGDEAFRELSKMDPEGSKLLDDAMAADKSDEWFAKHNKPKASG
Conditions: 50 uM, in vitro; for isoTOP-ABPP reactivity ratio at lysine Q9HC38_K305: 231 sol. The method, boiled down: as §1

In assay [5] the target is T5, G6PD Glucose-6-phosphate 1-dehydrogenase (Homo sapiens, UniProt P11413).
T5 construct: isoTOP-ABPP experiments performed in cell lysates (in vitro); endogenous in cells; host or cells: MDA-MB-231 soluble lysate
T5 sequence (P11413 whole entry): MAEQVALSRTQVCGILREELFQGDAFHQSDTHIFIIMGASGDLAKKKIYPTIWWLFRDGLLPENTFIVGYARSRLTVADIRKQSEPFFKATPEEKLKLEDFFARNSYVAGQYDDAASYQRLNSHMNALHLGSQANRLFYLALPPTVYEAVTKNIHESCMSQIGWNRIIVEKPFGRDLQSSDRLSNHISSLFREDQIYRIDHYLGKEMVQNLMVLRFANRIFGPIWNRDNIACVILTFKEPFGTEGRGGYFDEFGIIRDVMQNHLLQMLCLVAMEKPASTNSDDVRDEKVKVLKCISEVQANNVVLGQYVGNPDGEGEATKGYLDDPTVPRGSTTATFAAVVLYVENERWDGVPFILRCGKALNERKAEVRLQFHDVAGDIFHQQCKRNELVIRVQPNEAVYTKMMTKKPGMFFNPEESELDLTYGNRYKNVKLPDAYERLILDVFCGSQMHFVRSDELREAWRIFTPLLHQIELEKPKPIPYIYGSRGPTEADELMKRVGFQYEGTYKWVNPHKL
The following applies: 50 uM, in vitro; for isoTOP-ABPP reactivity ratio at lysine P11413_K171: 231 sol. The method, boiled down:
as §1

Assay [6] addresses T6, GOLGB1 Golgin subfamily B member 1 (Homo sapiens, UniProt Q14789).
T6 construct: isoTOP-ABPP experiments performed in cell lysates (in vitro); endogenous in cells; host or cells: soluble proteome of human cancer cell lines (MDA-MB-231, Ramos, Jurkat)
The following applies: 50 uM, in vitro; for isoTOP-ABPP reactivity ratio at lysine Q14789_K103: 231 sol. Summed up:
as §1

The structures appear in SMILES notation.

T1 sequence (P12956 2-609 limits assumed): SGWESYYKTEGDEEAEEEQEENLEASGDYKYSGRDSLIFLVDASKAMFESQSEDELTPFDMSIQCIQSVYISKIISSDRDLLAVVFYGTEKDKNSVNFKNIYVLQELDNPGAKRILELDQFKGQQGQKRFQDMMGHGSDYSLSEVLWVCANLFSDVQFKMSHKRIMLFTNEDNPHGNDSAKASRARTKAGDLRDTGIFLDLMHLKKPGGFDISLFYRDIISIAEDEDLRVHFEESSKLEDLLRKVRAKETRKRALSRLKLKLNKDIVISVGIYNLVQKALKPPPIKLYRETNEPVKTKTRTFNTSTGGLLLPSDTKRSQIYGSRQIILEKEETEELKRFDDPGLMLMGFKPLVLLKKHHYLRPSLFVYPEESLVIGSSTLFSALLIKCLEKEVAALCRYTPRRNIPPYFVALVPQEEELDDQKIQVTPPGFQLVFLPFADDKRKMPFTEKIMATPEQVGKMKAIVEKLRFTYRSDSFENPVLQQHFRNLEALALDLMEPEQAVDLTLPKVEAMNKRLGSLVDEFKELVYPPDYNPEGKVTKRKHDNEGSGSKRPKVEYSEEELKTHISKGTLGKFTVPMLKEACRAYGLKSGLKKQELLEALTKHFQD
T1 sequence (P13010 2-732 partner limits assumed): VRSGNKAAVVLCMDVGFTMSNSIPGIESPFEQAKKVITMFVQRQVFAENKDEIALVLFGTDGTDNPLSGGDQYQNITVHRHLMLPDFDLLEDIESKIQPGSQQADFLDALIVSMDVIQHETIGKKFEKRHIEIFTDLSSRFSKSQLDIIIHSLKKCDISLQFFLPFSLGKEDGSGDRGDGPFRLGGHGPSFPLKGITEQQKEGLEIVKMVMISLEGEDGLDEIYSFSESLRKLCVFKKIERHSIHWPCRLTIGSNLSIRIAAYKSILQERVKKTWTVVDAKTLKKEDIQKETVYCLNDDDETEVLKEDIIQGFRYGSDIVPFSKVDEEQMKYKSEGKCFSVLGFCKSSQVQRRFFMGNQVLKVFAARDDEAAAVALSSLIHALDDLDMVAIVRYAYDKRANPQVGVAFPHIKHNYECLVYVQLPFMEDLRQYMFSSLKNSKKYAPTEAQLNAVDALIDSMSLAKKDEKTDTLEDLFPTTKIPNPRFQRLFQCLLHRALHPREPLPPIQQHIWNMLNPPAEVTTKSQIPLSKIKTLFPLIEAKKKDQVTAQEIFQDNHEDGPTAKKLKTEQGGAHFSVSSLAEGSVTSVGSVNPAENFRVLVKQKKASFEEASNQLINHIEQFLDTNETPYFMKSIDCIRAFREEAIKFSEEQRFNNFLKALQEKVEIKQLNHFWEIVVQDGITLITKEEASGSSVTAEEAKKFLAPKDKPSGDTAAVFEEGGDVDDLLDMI
T6 sequence (Q14789 whole entry): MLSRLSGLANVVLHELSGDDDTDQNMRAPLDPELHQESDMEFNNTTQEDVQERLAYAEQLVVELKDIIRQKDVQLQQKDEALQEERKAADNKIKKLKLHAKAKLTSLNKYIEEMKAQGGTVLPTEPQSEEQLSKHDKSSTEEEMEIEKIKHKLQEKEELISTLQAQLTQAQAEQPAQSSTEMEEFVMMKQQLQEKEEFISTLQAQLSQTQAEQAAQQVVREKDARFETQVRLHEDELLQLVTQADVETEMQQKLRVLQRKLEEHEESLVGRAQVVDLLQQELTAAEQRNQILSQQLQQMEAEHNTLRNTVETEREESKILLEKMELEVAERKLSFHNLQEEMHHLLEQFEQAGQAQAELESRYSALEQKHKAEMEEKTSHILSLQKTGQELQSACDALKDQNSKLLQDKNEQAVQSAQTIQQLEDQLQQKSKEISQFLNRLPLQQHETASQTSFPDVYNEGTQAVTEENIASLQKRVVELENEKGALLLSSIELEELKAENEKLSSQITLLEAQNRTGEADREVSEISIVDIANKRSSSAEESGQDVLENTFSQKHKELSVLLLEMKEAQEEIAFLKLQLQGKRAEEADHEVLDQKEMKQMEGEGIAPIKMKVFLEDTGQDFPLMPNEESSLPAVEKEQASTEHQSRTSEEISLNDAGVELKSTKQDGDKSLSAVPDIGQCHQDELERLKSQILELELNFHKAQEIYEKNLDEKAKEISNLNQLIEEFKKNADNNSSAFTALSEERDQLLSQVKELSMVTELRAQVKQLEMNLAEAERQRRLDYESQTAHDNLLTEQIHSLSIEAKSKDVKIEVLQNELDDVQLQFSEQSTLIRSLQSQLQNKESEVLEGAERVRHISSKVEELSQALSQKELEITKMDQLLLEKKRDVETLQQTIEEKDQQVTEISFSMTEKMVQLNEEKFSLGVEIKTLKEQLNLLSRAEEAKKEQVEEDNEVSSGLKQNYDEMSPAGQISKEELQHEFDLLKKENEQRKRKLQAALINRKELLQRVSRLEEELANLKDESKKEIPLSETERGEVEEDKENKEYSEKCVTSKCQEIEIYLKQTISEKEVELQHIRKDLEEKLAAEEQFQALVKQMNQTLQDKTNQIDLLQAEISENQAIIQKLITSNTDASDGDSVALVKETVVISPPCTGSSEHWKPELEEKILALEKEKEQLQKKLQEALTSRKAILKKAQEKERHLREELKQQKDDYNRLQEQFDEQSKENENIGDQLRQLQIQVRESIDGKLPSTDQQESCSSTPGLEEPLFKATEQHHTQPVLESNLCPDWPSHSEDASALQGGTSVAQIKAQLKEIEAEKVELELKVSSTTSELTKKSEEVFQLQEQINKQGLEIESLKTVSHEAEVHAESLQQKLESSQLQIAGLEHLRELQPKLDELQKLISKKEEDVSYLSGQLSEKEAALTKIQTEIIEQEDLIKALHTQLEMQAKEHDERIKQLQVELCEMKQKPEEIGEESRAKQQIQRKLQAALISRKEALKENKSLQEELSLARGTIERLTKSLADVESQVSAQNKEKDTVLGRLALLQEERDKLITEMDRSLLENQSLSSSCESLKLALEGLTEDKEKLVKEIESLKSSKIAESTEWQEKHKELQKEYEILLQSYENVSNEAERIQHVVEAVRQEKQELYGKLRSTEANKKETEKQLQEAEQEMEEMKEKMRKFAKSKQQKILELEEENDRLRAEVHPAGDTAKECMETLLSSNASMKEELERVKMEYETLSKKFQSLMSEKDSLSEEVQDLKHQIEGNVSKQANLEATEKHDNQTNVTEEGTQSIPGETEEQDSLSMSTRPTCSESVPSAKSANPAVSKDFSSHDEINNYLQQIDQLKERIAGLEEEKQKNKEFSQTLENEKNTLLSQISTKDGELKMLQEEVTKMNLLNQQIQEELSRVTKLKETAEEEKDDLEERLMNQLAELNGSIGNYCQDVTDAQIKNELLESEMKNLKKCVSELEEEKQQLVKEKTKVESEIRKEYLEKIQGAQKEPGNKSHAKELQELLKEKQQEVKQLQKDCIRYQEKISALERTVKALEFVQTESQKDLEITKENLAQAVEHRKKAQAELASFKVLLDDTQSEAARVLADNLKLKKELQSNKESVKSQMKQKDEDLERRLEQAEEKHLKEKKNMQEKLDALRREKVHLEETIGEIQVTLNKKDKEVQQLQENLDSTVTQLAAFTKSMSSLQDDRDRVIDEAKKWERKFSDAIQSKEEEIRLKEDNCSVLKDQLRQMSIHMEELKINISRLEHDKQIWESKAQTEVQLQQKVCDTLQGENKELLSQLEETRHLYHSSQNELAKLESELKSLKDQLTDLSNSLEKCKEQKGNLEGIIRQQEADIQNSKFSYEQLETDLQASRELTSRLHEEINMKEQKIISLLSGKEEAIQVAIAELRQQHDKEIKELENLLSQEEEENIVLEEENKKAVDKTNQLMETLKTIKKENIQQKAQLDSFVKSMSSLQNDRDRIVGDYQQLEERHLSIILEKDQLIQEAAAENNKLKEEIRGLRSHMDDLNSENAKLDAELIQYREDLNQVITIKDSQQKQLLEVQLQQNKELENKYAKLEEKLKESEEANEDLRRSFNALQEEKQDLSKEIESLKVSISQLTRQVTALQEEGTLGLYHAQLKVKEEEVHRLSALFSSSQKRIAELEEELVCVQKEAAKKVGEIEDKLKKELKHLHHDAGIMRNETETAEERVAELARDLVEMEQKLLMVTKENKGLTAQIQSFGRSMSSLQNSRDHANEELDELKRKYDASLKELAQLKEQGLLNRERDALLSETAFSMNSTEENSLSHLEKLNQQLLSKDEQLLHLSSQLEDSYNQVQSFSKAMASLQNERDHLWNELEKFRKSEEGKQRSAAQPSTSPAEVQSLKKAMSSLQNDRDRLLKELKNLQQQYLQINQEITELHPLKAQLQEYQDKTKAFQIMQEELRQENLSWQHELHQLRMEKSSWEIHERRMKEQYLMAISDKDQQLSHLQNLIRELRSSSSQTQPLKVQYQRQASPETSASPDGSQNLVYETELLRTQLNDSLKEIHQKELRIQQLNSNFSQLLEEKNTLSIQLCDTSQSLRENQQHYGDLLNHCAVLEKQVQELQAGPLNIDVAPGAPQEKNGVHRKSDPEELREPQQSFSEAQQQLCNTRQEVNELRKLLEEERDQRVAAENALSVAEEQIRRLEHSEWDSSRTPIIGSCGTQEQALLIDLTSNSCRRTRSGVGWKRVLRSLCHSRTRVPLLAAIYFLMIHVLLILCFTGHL

Consider `O=C(Oc1c(F)c(F)c(F)c(F)c1F)c1ccc2ccccc2n1` [fragment 25, Pentafluorophenyl quinoline-2-carboxylate], for which the “isoTOP-ABPP reactivity ratio at lysine P12956_K351” value in assay [1] was found to be 1.6. In addition, the “isoTOP-ABPP reactivity ratio at lysine P00367_K480” value in assay [2] is recorded as 1.2. In assay [3], the “isoTOP-ABPP reactivity ratio at lysine P62875_K67” value was found to be 1.0. Further, in assay [4], the “isoTOP-ABPP reactivity ratio at lysine Q9HC38_K305” value is given as 0.4. For the same compound, the “isoTOP-ABPP reactivity ratio at lysine P11413_K171” value in assay [5] came to 0.8. In addition, the “isoTOP-ABPP reactivity ratio at lysine Q14789_K103” value in assay [6] is 1.0.

For the compound `O=C(CCc1coc2cc(F)ccc2c1=O)Oc1c(F)c(F)c(F)c(F)c1F` [fragment 26, Pentafluorophenyl 3-(7-fluoro-4-oxo-4H-chromen-3-yl)propanoate], the “isoTOP-ABPP reactivity ratio at lysine P12956_K351” value in assay [1] is recorded as 2.1. Besides, in assay [2], the “isoTOP-ABPP reactivity ratio at lysine P00367_K480” value came out at 1.6. For the same compound, the “isoTOP-ABPP reactivity ratio at lysine P62875_K67” value in assay [3] is given as 1.1. In assay [4], the “isoTOP-ABPP reactivity ratio at lysine Q9HC38_K305” value came to 0.8. Also, the “isoTOP-ABPP reactivity ratio at lysine P11413_K171” value in assay [5] is reported as 1.0. Moreover, the “isoTOP-ABPP reactivity ratio at lysine Q14789_K103” value in assay [6] was 1.1.

Turning to `O=C(CN1C(=O)c2ccccc2C1=O)Oc1c(F)c(F)c(F)c(F)c1F` [fragment 27, Pentafluorophenyl 2-(1,3-dioxoisoindolin-2-yl)acetate], in assay [1], the “isoTOP-ABPP reactivity ratio at lysine P12956_K351” value was found to be 3.1. Moreover, the “isoTOP-ABPP reactivity ratio at lysine P00367_K480” value in assay [2] was 2.0. Also, the “isoTOP-ABPP reactivity ratio at lysine P62875_K67” value in assay [3] was 1.0. Besides, the “isoTOP-ABPP reactivity ratio at lysine Q9HC38_K305” value in assay [4] came to 0.5. Also, the “isoTOP-ABPP reactivity ratio at lysine P11413_K171” value in assay [5] is reported as 0.9. Besides, the “isoTOP-ABPP reactivity ratio at lysine Q14789_K103” value in assay [6] was determined as 1.3.

Regarding `CCn1cc(C(=O)Oc2c(F)c(F)c(F)c(F)c2F)c(=O)c2ccc(C)nc21` [fragment 28, Pentafluorophenyl 1-ethyl-7-methyl-4-oxo-1,4-dihydro-1,8-naphthyridine-3-carboxylate], the “isoTOP-ABPP reactivity ratio at lysine P12956_K351” value in assay [1] came out at 1.9. Moreover, the “isoTOP-ABPP reactivity ratio at lysine P00367_K480” value in assay [2] is recorded as 1.0. Further, the “isoTOP-ABPP reactivity ratio at lysine P62875_K67” value in assay [3] worked out at 1.0. The “isoTOP-ABPP reactivity ratio at lysine Q9HC38_K305” value in assay [4] is reported as 1.0. The “isoTOP-ABPP reactivity ratio at lysine P11413_K171” value in assay [5] stood at 0.9. The “isoTOP-ABPP reactivity ratio at lysine Q14789_K103” value in assay [6] came to 0.9.

For the compound `O=C(Oc1ccc([N+](=O)[O-])cc1[N+](=O)[O-])C(c1ccccc1)c1ccccc1` [fragment 30, 2,4-Dinitrophenyl 2,2-diphenylacetate], in assay [1], the “isoTOP-ABPP reactivity ratio at lysine P12956_K351” value is 20.0. Further, the “isoTOP-ABPP reactivity ratio at lysine P00367_K480” value in assay [2] amounted to 1.8. Also, the “isoTOP-ABPP reactivity ratio at lysine P62875_K67” value in assay [3] came out at 1.8. Moreover, in assay [4], the “isoTOP-ABPP reactivity ratio at lysine Q9HC38_K305” value came out at 0.6. The “isoTOP-ABPP reactivity ratio at lysine P11413_K171” value in assay [5] turned out to be 3.9. In addition, in assay [6], the “isoTOP-ABPP reactivity ratio at lysine Q14789_K103” value is on record as 1.4.

Regarding `O=C(Oc1ccc([N+](=O)[O-])cc1[N+](=O)[O-])c1cc(C(F)(F)F)cc(C(F)(F)F)c1` [fragment 31, 2,4-Dinitrophenyl 3,5-bis(trifluoromethyl)benzoate], the “isoTOP-ABPP reactivity ratio at lysine P12956_K351” value in assay [1] worked out at 2.6. For the same compound, in assay [2], the “isoTOP-ABPP reactivity ratio at lysine P00367_K480” value was 1.3. Besides, the “isoTOP-ABPP reactivity ratio at lysine P62875_K67” value in assay [3] is 0.9. In assay [4], the “isoTOP-ABPP reactivity ratio at lysine Q9HC38_K305” value is on record as 0.5. The “isoTOP-ABPP reactivity ratio at lysine P11413_K171” value in assay [5] is 1.1. Also, the “isoTOP-ABPP reactivity ratio at lysine Q14789_K103” value in assay [6] stood at 0.9.

In the case of `O=C(Oc1ccc([N+](=O)[O-])cc1[N+](=O)[O-])C1CCN(C(=O)OCc2ccccc2)CC1` [fragment 34, 1-Benzyl 4-(2,4-dinitrophenyl) piperidine-1,4-dicarboxylate], in assay [1] (sol, 231), the “isoTOP-ABPP ratio (R) at liganded lysine P12956_K351” value is 1.6. In addition, in assay [2] (sol, 231), the “isoTOP-ABPP ratio (R) at liganded lysine P00367_K480” value amounted to 1.3. In assay [3] (sol, 231), the “isoTOP-ABPP ratio (R) at liganded lysine P62875_K67” value is given as 1.0. Moreover, the “isoTOP-ABPP ratio (R) at liganded lysine Q9HC38_K305” value in assay [4] (sol, 231) is 20.0. Further, the “isoTOP-ABPP ratio (R) at liganded lysine P11413_K171” value in assay [5] (sol, 231) is reported as 0.9. The “isoTOP-ABPP ratio (R) at liganded lysine Q14789_K103” value in assay [6] (sol, 231) came out at 0.9.

The record behind these values is US20210255193A1, “LYSINE REACTIVE PROBES AND USES THEREOF” (The Scripps Research Institute, priority 2017, published 2021).
